Experimental data reported in publication PMC9943626, “CS27109, A Selective Thyroid Hormone Receptor-β Agonist Alleviates Metabolic-Associated Fatty Liver Disease in Murine Models” (International Journal of Endocrinology, 2023).
Like-named read-outs stand apart in the source and are kept apart here.

Columns and labels:
[1] = test system: HFD SD rat model; assay: HFD SD rat model, biochemical, organ weight ratio, liver lipid and liver pathology; format: in vivo
Procedure: SD rat study: 58 SD rats ♂ aged 5–6 weeks were purchased from Beijing Huafukang Biotechnology Co., Ltd. 9 animals were kept with a food control diet as normal control, and the other 49 animals were fed 40% fat, 1.25% cholesterol and 0.5% sodium cholate (HFD, D12109C, SYSE BIO, Changzhou, China) as a model group. […] Animals in the normal and model groups were given solvent by oral gavage. All drugs, including solvent, were administered consecutively for 4 weeks and once a day. After sacrifice, blood was collected and serum was isolated for the AST, ALT, TG, TC, LDL-c, and HDL-c test, and livers and hearts were weighed to calculate the liver weight ratio and the heart weight ratio, respectively. The right lobe of the liver of each rat was harvested for the TG and TC test (A110-1-1 and A111-1-1, Nanjing Jiancheng Institute of Bioengineering, Nanjing, China) according to the manufacturer's instructions. The left lobe of the liver was collected for hematoxylin-eosin staining (H and E staining) to quantify liver steatosis, inflammation, and ballooning.
(§1) The liver samples were fixed in 10% formalin and embedded in paraffin using standard methods. The 4 μm paraffin sections were then assessed for liver histology by H and E staining and liver fibrosis by sirius red staining. The stained sections were panoramic scanned with a NanoZoomer Digital Pathology scanner (S210, Hamamatsu, Japan), and then observed with different visual fields at different magnifications, and scored for different liver lobes in the sections. The total NAS score represents the sum of the scores for steatosis (0–3), lobular inflammation (0–3), and ballooning (0–2), and ranges from 0–8 [30]. VIS7.0 software was used to analyze the area of liver fibrosis in the panoramic scanning SR staining sections, and the percentage of liver fibrosis area in the whole section area was calculated.

[2] = Observation of diarrhea in treated animals; format: in vivo, rodents; settings: animal studies
[3] = test system: WD + CCL4 mouse model; assay: WD + CCL4 mouse model, biochemical, liver weight ratio and liver pathology; format: in vivo, C57/B6 mouse
Procedure: C57/B6 mouse study: 61 C57/B6 mice ♂ aged 6–7 weeks were purchased from Beijing Vital River Laboratory Animal Technology Co., Ltd. Six animals were kept with a chow diet as normal control, and the other 55 animals were fed 60% fat diet (Western diet, D12492, Research diet) as the model group. […] Animals in the normal and model groups were given solvent by oral gavage. All drugs, including solvent, were administered consecutively for 4 weeks and once a day. After sacrifice, blood was collected and serum was isolated for the AST, ALT, TG, TC, LDL-c, HDL-c, and CK tests, and the livers were weighed to calculate the liver weight ratio. The left lobe of the liver of each mouse was collected for hematoxylin-eosin staining (H and E staining) and sirius red staining.
as §1

[4] = PK in the rat; format: in vivo, SD rat; settings: 10 mg/kg oral gavage once
[5] = test system: HFD-CHOL hamster model; assay: HFD-CHOL hamster model, serum biochemical test; format: in vivo, golden hamster; settings: 10 mg/kg (CS27109-M, MGL-3196) oral once a day 4 weeks, mean ± SD
Procedure: Hamster study: 58 golden hamsters ♂ aged 6–8 weeks were purchased from Beijing Vital River Laboratory Animal Technology Co., Ltd. 10 animals were kept with a diet of food control as normal control, and the other 48 animals were fed 40% fat and 1.25% cholesterol (HFD-CHOL, D12108C, Research diet) as a model group. […] Animals in the normal and model group were given solvent by oral gavage. All drugs, including solvent, were administered consecutively for 4 weeks and once a day. After sacrifice, blood was collected and serum was isolated for the AST, ALT, TG, TC, LDL-c, and HDL-c test.

[6] = Tissue distribution in SD rat; format: in vivo; settings: for concentration at 2 h / concentration at 8 h: male, 10 mg/kg oral gavage once
Excerpt: [Worded in the source for another organism; this organism is reported under the same test.] Half of mice for each group (n = 3) were sacrificed 2H and 8H after drug administration, respectively. Blood, heart, and liver were collected at each time point. Blood was processed and detected as mentioned previously. The heart and liver were homogenized and added extractant. The protein of tissue samples was precipitated by vortex oscillation, and the supernatant was collected and determined by LC-MS/MS procedures.

[7] = WD + CCL4 mouse, 4 weeks, MGL3196 10 mg/kg, CS27109 high-dose (30 mg/kg), vs model
[8] = heart, read-out: Heart concentration
[9] = liver, read-out: Liver concentration
[10] = serum, read-out: Serum concentration

diarrhea in treated animals [2]: exhibit diarrhea
CK activity ([3]; WD + CCL4 mouse serum, 10 mg/kg (CS27109-M, MGL-3196) oral once a day 4 weeks, mean ± SD, model 345 ± 268, normal 334 ± 193): 197 ± 129 U/L
PK properties in rat (compared with CS27109) [4]: slightly higher PK properties
average of concentration liver/heart ([6]; 10 mg/kg oral, average of 2H and 8H): 22.325
concentration at 2 h [6, 8]: 156 ng/g
concentration at 8 h [6, 8]: 128 ng/g
concentration at 2 h [6, 9]: 3850 ng/g
concentration at 8 h [6, 9]: 2550 ng/g
concentration at 2 h [6, 10]: 1.4 µg/mL
concentration at 8 h [6, 10]: 0.506 µg/mL
SMILES: CC(C)c1cc(Oc2c(Cl)cc(-n3nc(C#N)c(=O)[nH]c3=O)cc2Cl)n[nH]c1=O [MGL3196, 2-[3,5-dichloro-4-(5-isopropyl-6-oxo-1,6-dihydropyridazin-3-yloxy)phenyl]-3,5-dio xo-2,3,4,5-tetrahydro[1,2,4]triazine-6-carbonitrile, reference compound]
Liver TC ([1]; HFD SD rat liver, 15 mg/kg (CS27109-M, MGL-3196) oral once a day 4 weeks, mean ± SD, model 13 ± 2.2, normal 6.0 ± 0.76): 12 ± 1.7 µmol/g
Liver TG ([1]; HFD SD rat liver, 15 mg/kg (CS27109-M, MGL-3196) oral once a day 4 weeks, mean ± SD, model 102 ± 36, normal 0.75 ± 12): 113 ± 38 µmol/g
TG ([1]; HFD SD rat serum, 15 mg/kg (CS27109-M, MGL-3196) oral once a day 4 weeks, mean ± SD, model 0.82 ± 0.73, normal 0.53 ± 0.34): 0.11 ± 0.03^∗∗∗ mmol/L
HDL-c ([1]; HFD SD rat serum, 15 mg/kg (CS27109-M, MGL-3196) oral once a day 4 weeks, mean ± SD, model 1.2 ± 0.44, normal 1.1 ± 0.13): 0.94 ± 0.26 mmol/L
LDL-c ([1]; HFD SD rat serum, 15 mg/kg (CS27109-M, MGL-3196) oral once a day 4 weeks, mean ± SD, model 9.7 ± 6.1, normal 0.28 ± 0.06): 1.1 ± 0.65 mmol/L
TC ([1]; HFD SD rat serum, 15 mg/kg (CS27109-M, MGL-3196) oral once a day 4 weeks, mean ± SD, model 20 ± 13, normal 1.5 ± 0.20): 3.3 ± 1.3 mmol/L
ALT ([1]; HFD SD rat serum, 15 mg/kg (CS27109-M, MGL-3196) oral once a day 4 weeks, mean ± SD, model 166 ± 95, normal 32 ± 6.8): 74 ± 24 U/L
AST ([1]; HFD SD rat serum, 15 mg/kg (CS27109-M, MGL-3196) oral once a day 4 weeks, mean ± SD, model 365 ± 212, normal 103 ± 21): 185 ± 66 U/L
NAS score ([1]; HFD SD rat, 4 weeks, 15 mg/kg, vs model): tendency to reduce the NAS score, but without significance
liver steatosis score (H and E) ([1]; HFD SD rat, 4 weeks, CS27109 5-45 mg/kg dose-dependent, MGL3196 15 mg/kg, vs model): lessened steatosis
LDL-c ([3]; WD + CCL4 mouse serum, 10 mg/kg (CS27109-M, MGL-3196) oral once a day 4 weeks, mean ± SD, model 1.1 ± 0.35, normal 0.43 ± 0.04): 0.33 ± 0.05 mmol/L
TG ([3]; WD + CCL4 mouse serum, 10 mg/kg (CS27109-M, MGL-3196) oral once a day 4 weeks, mean ± SD, model 1.2 ± 0.34, normal 0.91 ± 0.14): 1.0 ± 0.23 mmol/L
HDL-c ([3]; WD + CCL4 mouse serum, 10 mg/kg (CS27109-M, MGL-3196) oral once a day 4 weeks, mean ± SD, model 1.5 ± 0.25, normal 2.0 ± 0.08): 1.2 ± 0.13 mmol/L
TC ([3]; WD + CCL4 mouse serum, 10 mg/kg (CS27109-M, MGL-3196) oral once a day 4 weeks, mean ± SD, model 4.1 ± 0.97, normal 3.0 ± 0.10): 1.9 ± 0.17 mmol/L
AST ([3]; WD + CCL4 mouse serum, 10 mg/kg (CS27109-M, MGL-3196) oral once a day 4 weeks, mean ± SD, model 10245 ± 4955, normal 116 ± 71): 2178 ± 769 U/L
ALT ([3]; WD + CCL4 mouse serum, 10 mg/kg (CS27109-M, MGL-3196) oral once a day 4 weeks, mean ± SD, model 14003 ± 4205, normal 54 ± 15): 4658 ± 1639 U/L
liver inflammation score (H and E) [3, 7]: notable reduction
liver steatosis score (H and E) [3, 7]: notable reduction
area of liver fibrosis (sirius red) ([3]; WD + CCL4 mouse, 4 weeks, three doses of CS27109 (3, 10, 30 mg/kg), MGL3196 10 mg/kg, vs model): prominently reduced the area of the fibrosis
HDL-c ([5]; model 3.6 ± 1.1, normal 1.6 ± 0.45): 2.9 ± 0.36 mmol/L
LDL-c ([5]; model 17 ± 6.1, normal 1.3 ± 0.54): 8.6 ± 3.3 mmol/L
TG ([5]; model 26 ± 24, normal 2.1 ± 1.1): 5.9 ± 5.6 mmol/L
TC ([5]; model 37 ± 13, normal 3.1 ± 0.72): 18 ± 6.3 mmol/L
ALT ([5]; model 278 ± 174, normal 94 ± 58): 206 ± 47 U/L
AST ([5]; model 638 ± 323, normal 98 ± 45): 752 ± 261 U/L
